“Also recorded” adds a separate entry of the source.
Columns and labels:
[1] = system: rat; conditions: cited from earlier work
[2] = system: adult and elderly subjects with insomnia disorder; assay: Phase 3 double-blind placebo-controlled polysomnography study, Example A (NCT03545191), 25 mg and 50 mg; assay type: in vivo, human; conditions: for IDSIQ sleepiness domain score: month 1 and month 3
Experimental: (§1) Daridorexant entered two phase 3 multi-center, double-blind, randomized, placebo-controlled, parallel-group, polysomnography study to assess the efficacy and safety of ACT-541468 in adult and elderly subjects with insomnia disorder. (NCT03545191, EudraCT Number: 2017-004642-20 testing strengths of 25 mg and 50 mg; and NCT03575104, EudraCT Number: 2017-004643-20 testing strengths of 10 mg and 25 mg). To assess daytime functioning, said phase 3 studies investigate as a secondary endpoint the IDSIQ sleepiness domain score, using as a dedicated patient reported outcome (PRO) instrument the Insomnia Daytime Symptoms and Impacts Questionnaire (IDSIQ) (S. Hudgens et al., The Patient—Patient-Centered Outcomes Research (2021) 14:249-268). The instrument is based on the Daytime Insomnia Symptom Scale (DISS) (Buysse et al., Sleep Medicine 8 (2007) 198-208; Buysse et al., SLEEP 29(9) (2006) 1155-1173) and designed to characterize and compare daytime symptoms in insomnia. The IDSIQ is structured in three domains (alertness/cognition; (negative) mood; tiredness/sleepiness) and contains overall 14 items, each based on an 11-point numeric rating scale. For each domain score the total rating score of all associated items is considered.
Example A): Multi-Center, Double-Blind, Randomized, Placebo-Controlled, Parallelgroup, Polysomnography Study to Assess the Efficacy and Safety of ACT-541468 in Adult and Elderly Subjects with Insomnia Disorder
The study comprises the following 3 phases: the screening phase, the treatment phase, and the safety follow-up phase. The screening phase starts with the signature of the informed consent form at Visit 1 and ends at Randomization (Visit 4), provided the subject fulfills all the eligibility criteria. It includes the Screening period and the Run-in period. The screening phase lasts […]. The Screening period starts with Visit 1 and ends at Visit 2. During the Screening period, the investigator verifies eligibility criteria and eligible subjects perform a one-night polysomnography (PSG) assessment. The Screening period lasts 7 to 18 days to allow time to perform all required procedures at Visit 1, the PSG assessment and collect the minimum number of eDiary entries (i.e., 7 days) between Visit 1 and Visit 2. The Run-in period starts with Visit 2 and ends at Randomization (i.e., Visit 4). At Visit 2 eligible subjects are allocated a single-blinded placebo treatment that is taken daily. During the Run-in period subjects come to the site for Visit 3, which consists of 2 PSG nights and is performed when the subject has completed the eDiary for at least 7 days and eligibility is confirmed. The Run-in period lasts 13 to 24 days, to allow collection of the minimum number of eDiary entries (i.e., 7 days), perform 2 PSG nights at Visit 3, and receive the eligibility confirmation from the PSG central reader. The double-blind (DB) treatment phase lasts 3 months. It starts at Randomization (Visit 4). DB study treatment is taken daily. A safety telephone call is performed at Visit 5 to collect information about adverse events (AEs) and concomitant medications. Sleep parameters of each subject are objectively assessed with 2 consecutive PSG nights at Visit 6 and Visit 8. A safety visit without PSG night is performed at Visit 7. An eDiary is completed every day during the treatment phase. End-of-Double-Blind-Treatment (EODBT) is reached in the second morning of Visit 8. The safety follow-up phase starts after EODBT. It consists of a single-blind placebo run-out period of 7 days and a safety follow-up period. The Run-out period starts in the evening of Visit 9. Visit 9 consists of one PSG night on single-blind placebo treatment. Visit 9 is followed by 6 days at home with single-blind placebo treatment. The eDiary is completed every day during the Run-out period. The end of the Run-out period (End-of-Treatment [EOT]) is reached after all visit assessments have been performed at Visit 10. […]

[3] = system: animal model of agitation; conditions: in vivo; cited from earlier work
[4] = system: adult and elderly subjects with insomnia disorder; assay: Phase 3 double-blind placebo-controlled polysomnography study, Example B (NCT03575104), 10 mg and 25 mg; assay type: in vivo, human
Experimental: as §1
Example B): Multi-Center, Double-Blind, Randomized, Placebo-Controlled, Parallelgroup, Polysomnography Study to Assess the Efficacy and Safety of ACT-541468 in Adult and Elderly Subjects with Insomnia Disorder
The study (NCT03575104) is conducted in analogy to the study of Example A), using daridorexant strengths of 10 mg and 25 mg.

[5] = system: subjects with insomnia disorder; conditions: cited from earlier work; for visual analog scales (VASs) on morning sleepiness, daytime alertness, and daytime ability to function: compared with placebo at week 2, higher doses, not sustained at week 4
[6] = in vivo; cited from earlier work
[7] = 25 mg and 50 mg once daily in the evening, Month 1 and Month 3, vs placebo
[8] = both doses (25 mg, 50 mg), all timepoints, vs placebo
[9] = 10 mg, month 1 and month 3, vs placebo
[10] = 25 mg, month 1 and month 3, vs placebo

## COc1ccc(-n2nccn2)c(C(=O)N2CCC[C@@]2(C)c2nc3c(C)c(Cl)ccc3[nH]2)c1 [daridorexant, [(S)-2-(5-Chloro-4-methyl-1H-benzoimidazol-2-yl)-2-methyl-pyrrolidin-1-yl]-(5-methoxy-2-[1,2,3]triazol-2-yl-phenyl)-methanone]
[1]
  crossing of the blood-brain barrier: cross the blood-brain barrier
  sleep promotion (effects on active wake, home cage activity, NREM sleep, REM sleep): promote sleep
[2]; [7]
  change from baseline in LPS (latency to persistent sleep, sleep onset): significant reductions
  change from baseline in WASO (wake time after sleep onset, sleep maintenance): significant reductions
  change from baseline in subjective total sleep time (sTST): increased the subjective total sleep time (sTST) significantly
[2]; 25 mg and 50 mg vs placebo
  incidence of somnolence: low (lower with daridorexant 50 mg versus placebo) and not dose dependent
[2]; 25 mg, vs placebo
  IDSIQ sleepiness domain score: numerical trend; also recorded: numerical improvement
[2]; 50 mg dose group compared to placebo
  falls: Fewer falls
[2]; 50 mg, vs placebo
  IDSIQ sleepiness domain score: significantly improved
[2]; 3 months of treatment
  daytime functioning over time: gradual improvement
  improvements in sleep (WASO, LPS, sTST) over time: maintained over 3 months; also recorded: maintained over three months
[2]; adult and elderly patients
  tolerability / safety profile: well tolerated
[2]; [8]
  IDSIQ alert/cognition domain score: decreased; also recorded: improved
  IDSIQ mood domain score: decreased; also recorded: improved
  IDSIQ total score: decreased; also recorded: improved
[2]; both treatment doses vs placebo
  rate of adverse events: comparable between placebo and daridorexant
[2]; every morning
  next-morning sleepiness effect assessed by visual analog scale (VAS): no next-morning sleepiness effect
[2]; in vivo
  most frequent treatment-emergent adverse events (TEAEs): nasophyringitis and headache
  suicide, suicidal ideation, or self-injury: no suicide, suicidal ideation, or self-injury
[2]; placebo group compared to daridorexant treatment groups
  number of serious adverse events: higher in the placebo group
[2]; upon discontinuation
  rebound insomnia or withdrawal symptoms upon discontinuation: no rebound insomnia, or withdrawal symptoms
[3]
  activity in animal model of agitation: active
[4]; [9]
  WASO: not
  sTST: not
[4]; 25 mg, both time points
  IDSIQ sleepiness domain: numerical trend
[4]; 25 mg, month 1 and month 3
  LPS after log-transformation: significantly reduced; also recorded: significant after log-transformation
[4]; [10]
  WASO: significantly decreased
  sTST: increased
[4]; 25 mg, vs placebo, without log-transformation
  decrease in LPS: did not reach statistical significance
[5]; any dose vs placebo
  morning sleepiness (sleepiness the following day): no difference
[5]
  visual analog scales (VASs) on morning sleepiness, daytime alertness, and daytime ability to function: nonsignificant increases
[5]; phase 2, subjects with insomnia disorder
  wake time after sleep onset: dose-dependent reduction
[5]; up to and including the highest dose (50 mg)
  next-morning residual drug effects: absence of such effects

## Cc1ccc(-n2nccn2)c(C(=O)N2CCN(c3nc4cc(Cl)ccc4o3)CC[C@H]2C)c1 [suvorexant]
[6]
  halflife (t½): 12 h

## Cc1ccc(-c2nc3ccc(C)cn3c2CC(=O)N(C)C)cc1 [zolpidem, reference compound]
[5]
  visual analog scales (VASs) on morning sleepiness, daytime alertness, and daytime ability to function: pattern was also true
